In a melting point compilation (Tetko et al.; mined from patent text by program, amines drawn as free bases though some values may be those of a salt) one finds melting point data, which are given here for 34 compounds.

For the compound `O=C(O)c1c[nH]c(SCc2ccccc2)c1SCc1ccccc1`, the melting point was 160 to 162 °C.

Regarding `COc1ccc(Oc2nccc(-c3c(-c4ccc(F)cc4)ncn3C3CCNCC3)n2)cc1`, the melting point is 190 to 191 °C.

As for `CCOC(=O)N=c1ccc(C)cn1Cc1cccc(C(F)(F)F)c1`, the melting point stood at 121 °C.

`CCc1c(C)c2c(c(OS(=O)(=O)c3ccc(C)cc3)c1C/C=C(\C)CCC(=O)OC)C(=O)OC2`: the melting point was in the range of 101 to 103 °C.

On to `COc1ccc2nc(-c3ccc(N)c(I)c3)sc2c1`, for which the melting point lay within 179 to 181 °C.

In turn, `CN1Cc2c(-c3noc(CN4CCCC4)n3)ncn2-c2ccc(F)cc2C1=O` showed a melting point of 158 to 160 °C.

`CN(C)CCc1[nH]c2ccccc2c1CSC(=S)N(C)C` registered a melting point of 125 to 128 °C.

`C[C@@H](n1ncn(-c2ccc(-n3ccnn3)cc2)c1=O)[C@](O)(Cn1cncn1)c1ccc(F)cc1F`: the melting point was in the range of 219 to 220 °C.

Compound `Cc1c(OCc2ccccc2)c(=O)ccn1CCC(=O)O` came in with a melting point of 81 to 83 °C.

`C=C=CS(=O)(=O)c1ncn(C(=O)N(CC)CC)n1` came in with a melting point of 98 to 100 °C.

Take `COc1ccc(C(CC(C)=O)N2C(=O)c3cccc(NC(C)=O)c3C2=O)cc1OC1CCCC1` (centres undefined): the melting point lay within 145 to 147 °C.

The compound `Cc1ccc(NC(=O)c2cnn3c(C(F)F)cc(-c4ccc(C(F)(F)F)cc4)nc23)cc1S(N)(=O)=O` came in with a melting point of 249 °C.

Regarding `C#CCN(C)CC1=Cc2ccccc2Oc2ccccc21`, the melting point lay in the range of 66 to 67 °C.

The compound `COc1ccc(S(=O)(=O)N(C)C)cc1C(=O)NCc1ccc(OCCN(C)C)cc1` yielded a melting point of 99.5 to 100 °C.

Turning to `COc1ccc(C=O)c(F)c1OC`, the melting point was 52 to 54 °C.

In turn, `NS(=O)(=O)c1ccc(-n2nc(C(F)(F)F)cc2-c2ccc(-c3ccco3)cc2)c(Cl)c1` yielded a melting point of 190 °C.

Compound `COc1ccc(C(=O)N(C)c2ccc(CO)cc2)cc1` returned a melting point of 85 to 90 °C.

Consider `CS(=O)(=O)c1ccc(C2=C(c3ccc(F)c(Cl)c3)CCC2)cc1`, for which the melting point is 87.5 to 88.5 °C.

As to `Cc1c(Br)c(C)c(Cc2ccc(C(C)C)cc2)c2c1CCO2`, the melting point fell in the range of 95 to 96 °C.

Regarding `CC(C=CC=C(C)C=CC1=C(C)C(=O)CCC1(C)C)=CC=CC=C(C)C=CC=C(C)C=CC1=C(C)C(=O)CCC1(C)C`, the melting point fell in the range of 205 to 207 °C.

`N#CCc1cc(=O)c(OCc2ccccc2)cn1Cc1ccccc1` returned a melting point of 175 to 180 °C.

For the compound `CC(C)NC(=O)c1nc(Cl)c(Cl)[nH]1`, the melting point stood at 150 °C.

The compound `C[C@@H](NC(=O)c1c[nH]c2ncc(-c3nn(C)c4ccsc34)nc12)C(=O)N1CC(C#N)C1` came in with a melting point of 310 to 320 °C.

In turn, `CN(c1c(Cl)ccc2cc(C(N)=S)[nH]c12)S(=O)(=O)c1cccs1` registered a melting point of 200 to 201 °C.

`CS(=O)(=O)NCC(=O)CCN1CCC(C2c3ncc(Br)cc3CCc3cc(Cl)cc(Cl)c32)CC1` (single isomer, unassigned; (+)) yielded a melting point of 110 to 113 °C.

For `C=C(C)Cc1c(C)c(NC(C)=O)cc(C)c1O`, the melting point lay within 183 to 185 °C.

The compound `COC(=O)C1CCC2C3CCC4CC(=O)CCC4(C)C3C(NC3CCCCC3)CC12C` (centres undefined) displayed a melting point of 93 to 94 °C.

`COCCc1nc2c(N)nc3ccccc3c2n1CC(C)(C)CNC(=O)Nc1ccccc1` displayed a melting point of 125 to 130 °C.

`CN1CCN(c2cccc(-n3cnc4cc(C#N)ccc43)c2)CC1` yielded a melting point of 158 to 160 °C.

In turn, `COC(=O)[C@H](CCCCNC(=O)c1ccc(C(=O)c2ccccc2)cc1)n1c2ccccc2c2ccccc21` had a melting point of 65 °C.

In the case of `Cc1cccc(Nc2ncnc3cc(NCCCN(C)C)c(N)cc23)c1`, the melting point is 60 to 66 °C.

Compound `CCN(CC)C1=NS(=O)(=O)c2cccc(OC(F)F)c21` yielded a melting point of 93 to 94 °C.

`O=C(O)CCC(=O)c1ccc2oc3ccccc3c2c1` gave a melting point of 186 to 188 °C.

The compound `CCCNC(=O)C1(CCCCN2CCC(NC(=O)OC(C)(C)C)CC2)c2ccccc2-c2ccccc21` showed a melting point of 118 to 120 °C.

What is called melting point is the temperature, or range, at which the solid turns liquid.
